Data from patent publication US8802678B2, “Carbonylated (aza) cyclohexanes as dopamine D3 receptor ligands” (Bioprojet, priority 2006, dated 2014).

Compound | melting point
N#CCC(=O)N[C@H]1CC[C@H](CCN2CCN(c3cccc(SC(F)(F)F)c3)CC2)CC1 [Example 343, 2-Cyano-N-(4-{2-[4-(3-trifluoromethylsulfanylphenyl)piperazin-1-yl]ethyl}cyclohexyl)-acetamide] | 165 °C
CS(=O)(=O)c1cccc(N2CCN(CC[C@H]3CC[C@H](NC(=O)CC#N)CC3)CC2)c1 [Example 351, 2-Cyano-N-(4-{2-[4-(3-methanesulfonylphenyl)piperazin-1-yl]ethyl}cyclohexyl)acetamide] | 195 °C
N#CCC(=O)N[C@H]1CC[C@H](CCN2CCN(c3cccc(C(F)F)c3)CC2)CC1 [Example 354, 2-Cyano-N-(4-{2-[4-(3-difluoromethylphenyl)piperazin-1-yl]ethyl}cyclohexyl)acetamide] | 185 °C
N#CCC(=O)N[C@H]1CC[C@H](CCN2CCN(c3ccc(Cl)cc3F)CC2)CC1 [Example 359, N-(4-{2-[4-(4-Chloro-2-fluorophenyl)piperazin-1-yl]ethyl}cyclohexyl)-2-cyanoacetamide] | 218 °C
N#CCC(=O)N[C@H]1CC[C@H](CCN2CCN(c3ccc(Cl)c(C(F)(F)F)c3)CC2)CC1 [Example 360, N-(4-{2-[4-(4-Chloro-3-trifluoromethylphenyl)piperazin-1-yl]ethyl}cyclohexyl)-2-cyanoacetamide] | 187 °C
N#CCCCC(=O)N[C@H]1CC[C@H](CCN2CCN(c3ccc4c(c3)OCO4)CC2)CC1 [Example 365, N-{4-[2-(4-Benzo[1,3]dioxol-5-ylpiperazin-1-yl)ethyl]cyclohexyl}-4-cyanobutanamide] | 189 °C
N#CCCCC(=O)N[C@H]1CC[C@H](CCN2CCN(c3ccc(Cl)c(Cl)c3)CC2)CC1 [Example 368, 4-Cyano-N-(4-{2-[4-(3,4-dichlorophenyl)piperazin-1-yl]ethyl}cyclohexyl)butanamide] | 151 °C
Cc1ccc(N2CCN(CC[C@H]3CC[C@H](NC(=O)CC#N)CC3)CC2)cc1Cl [Example 369, N-(4-{2-[4-(3-Chloro-4-methylphenyl)piperazin-1-yl]ethyl}cyclohexyl)-2-cyanoacetamide] | 220 °C
N#CCC(=O)N[C@H]1CC[C@H](CCN2CCN(c3ccc(C#N)cc3)CC2)CC1 [Example 370, 2-Cyano-N-(4-{2-[4-(4-cyanophenyl)piperazin-1-yl]ethyl}cyclohexyl)acetamide] | 228 °C

The next lines start with the values.

melting point | Compound
159 °C | Cc1c(F)cccc1N1CCN(CC[C@H]2CC[C@H](NC(=O)CCCC#N)CC2)CC1 [Example 356, 4-Cyano-N-(4-{2-[4-(3-fluoro-2-methylphenyl)piperazin-1-yl]ethyl}cyclohexyl)butanamide]
141 °C | N#CCCCC(=O)N[C@H]1CC[C@H](CCN2CCN(c3ccc(F)c(F)c3)CC2)CC1 [Example 357, 4-Cyano-N-(4-{2-[4-(3,4-difluorophenyl)piperazin-1-yl]ethyl}cyclohexyl)butanamide]
160 °C | Cc1cc(N2CCN(CC[C@H]3CC[C@H](NC(=O)CCCC#N)CC3)CC2)ccc1F [Example 358]
150 °C | N#CCCCC(=O)N[C@H]1CC[C@H](CCN2CCN(c3cccc(SC(F)(F)F)c3)CC2)CC1 [Example 363, 4-Cyano-N-(4-{2-[4-(3-trifluoromethylsulfanylphenyl)piperazin-1-yl]ethyl}cyclohexyl)butanamide]
155 °C | N#CCCCC(=O)N[C@H]1CC[C@H](CCN2CCN(c3cccc(C(F)F)c3)CC2)CC1 [Example 364, 4-Cyano-N-(4-{2-[4-(3-difluoromethylphenyl)piperazin-1-yl]ethyl}cyclohexyl)butanamide]
95 °C | N#CCCCC(=O)N[C@H]1CC[C@@H](CCN2CCN(c3cccc(C(F)(F)F)c3F)CC2)CC1 [Example 366, 4-Cyano-N-(4-{2-[4-(2-fluoro-3-trifluoromethylphenyl)piperazin-1-yl]ethyl}cyclohexyl)butanamide]
